Read-outs that look alike come from different tables or passages of the source. Positions of bridges follow the written chain, without caps; N, C: chain ends. Residues, ends and D or L forms follow the SMILES beside them.
What was measured:
Assay type in all cases: binding
FGF-R4 ECD = molecular target: T1, FGF-R4 ECD (Homo sapiens, UniProt P22455); assay: single concentration BLI of crude peptides
T1 construct: DNA constructs for the extracellular domain (ECD) of human FGF-; HPC4 (C); made in house; host or cells: HEK 293-6E
T1 sequence (P22455 22-369 limits assumed): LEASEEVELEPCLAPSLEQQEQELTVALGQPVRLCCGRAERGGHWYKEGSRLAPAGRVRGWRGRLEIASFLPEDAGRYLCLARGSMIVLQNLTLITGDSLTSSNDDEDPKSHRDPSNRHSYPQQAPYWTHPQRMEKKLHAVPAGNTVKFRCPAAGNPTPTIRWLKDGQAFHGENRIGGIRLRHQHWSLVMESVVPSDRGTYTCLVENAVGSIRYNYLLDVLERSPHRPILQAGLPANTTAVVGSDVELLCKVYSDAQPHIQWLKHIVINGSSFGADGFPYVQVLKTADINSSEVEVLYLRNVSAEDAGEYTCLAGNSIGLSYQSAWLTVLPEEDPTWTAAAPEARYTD
In short: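 Streptavidin biosensors carrying biotinylated FGF receptor ECD were immersed in peptide (~1 μM for crude single-point runs, a concentration series for purified peptides) and then in peptide-free buffer. KD was obtained by fitting the BLI association and dissociation curves.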

FGF-R1C ECD = molecular target: T2, FGF-R1C ECD (Homo sapiens, UniProt P11362); assay: biochemical; design: DNA constructs for the extracellular domain (ECD) of human FGF-; HPC4 (C); made in house; host or cells: HEK 293-6E
T2 sequence (P11362 22-376 limits assumed): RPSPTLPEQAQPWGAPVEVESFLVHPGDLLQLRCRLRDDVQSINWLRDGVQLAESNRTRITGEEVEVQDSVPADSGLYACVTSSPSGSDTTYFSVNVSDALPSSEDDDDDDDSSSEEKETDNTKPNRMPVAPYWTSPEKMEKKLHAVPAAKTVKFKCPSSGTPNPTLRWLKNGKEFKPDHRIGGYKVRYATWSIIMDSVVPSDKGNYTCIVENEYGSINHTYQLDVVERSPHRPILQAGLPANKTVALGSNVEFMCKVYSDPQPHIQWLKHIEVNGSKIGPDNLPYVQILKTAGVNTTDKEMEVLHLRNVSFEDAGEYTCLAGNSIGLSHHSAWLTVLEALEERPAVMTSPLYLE
In short: (§1)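 Biolayer interferometry with biotinylated FGF-R ECD on streptavidin biosensors in PBS pH 7.4, 0.05% Tween-20, 0.01% BSA. Multi-concentration: purified peptide dilution series fitted to a multi-point KD model.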

FGF-R3C ECD = molecular target: T3, FGF-R3C ECD (Homo sapiens, UniProt P22607); assay: biochemical; design: DNA constructs for the extracellular domain (ECD) of human FGF-; HPC4 (C); made in house; host or cells: HEK 293-6E
T3 sequence (P22607 23-375 limits assumed): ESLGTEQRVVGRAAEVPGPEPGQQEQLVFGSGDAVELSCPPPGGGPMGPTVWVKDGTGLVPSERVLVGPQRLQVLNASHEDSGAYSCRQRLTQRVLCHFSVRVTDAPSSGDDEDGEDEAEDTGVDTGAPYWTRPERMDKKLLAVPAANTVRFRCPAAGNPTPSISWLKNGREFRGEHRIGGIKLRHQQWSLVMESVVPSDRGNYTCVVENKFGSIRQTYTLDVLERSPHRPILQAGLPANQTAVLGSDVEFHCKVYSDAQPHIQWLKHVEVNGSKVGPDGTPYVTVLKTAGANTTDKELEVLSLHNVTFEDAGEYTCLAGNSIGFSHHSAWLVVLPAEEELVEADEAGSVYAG
In short: as §1

[1] = crude T18 selection 1 (1:1:1) peptides, single concentration BLI (Table S4), read-out: KD (4)
[2] = crude NNK peptides, single concentration BLI (Table S3), read-out: KD (4)

CC[C@H](C)[C@@H]1NC(=O)[C@H](Cc2c[nH]c3ccccc23)NC(=O)[C@H]([C@@H](C)CC)NC(=O)[C@H](CO)NC(=O)[C@@H]2CCCN2C(=O)[C@H](Cc2c[nH]cn2)NC(=O)[C@H](CO)NC(=O)[C@H](Cc2c[nH]c3ccccc23)NC(=O)[C@H](Cc2c[nH]c3ccccc23)NC(=O)[C@H](C(C)C)NC(=O)[C@@H](NC(=O)[C@H](CCSC)NC(C)=O)CSSC[C@@H](C(=O)NCC(=O)N[C@@H](CO)C(=O)NCC(=O)N[C@@H](CO)C(=O)N[C@@H](CC(=O)O)C(=O)N[C@@H](Cc2ccc(O)cc2)C(=O)N[C@@H](CCCCN)C(=O)N[C@@H](CC(=O)O)C(=O)N[C@@H](CC(=O)O)C(=O)N[C@@H](CC(=O)O)C(=O)N[C@@H](CC(=O)O)C(=O)N[C@@H](CCCCN)C(N)=O)NC1=O (Ac-MCVWWSHPSIWICGSGSDYKDDDDK-NH2; disulfide 2-13)
Kd (FGF-R4 ECD; [1]): > 10 µM
Kd (FGF-R1C ECD): 0.065 µM
Kd (FGF-R3C ECD): > 10 µM

CC[C@H](C)[C@@H]1NC(=O)[C@H](CC(C)C)NC(=O)[C@H](CCCCN)NC(=O)[C@H](CO)NC(=O)[C@H](Cc2c[nH]c3ccccc23)NC(=O)[C@@H](NC(=O)[C@H](CCSC)NC(C)=O)CSSC[C@@H](C(=O)NCC(=O)N[C@@H](CO)C(=O)NCC(=O)N[C@@H](CO)C(=O)N[C@@H](CC(=O)O)C(=O)N[C@@H](Cc2ccc(O)cc2)C(=O)N[C@@H](CCCCN)C(=O)N[C@@H](CC(=O)O)C(=O)N[C@@H](CC(=O)O)C(=O)N[C@@H](CC(=O)O)C(=O)N[C@@H](CC(=O)O)C(=O)N[C@@H](CCCCN)C(N)=O)NC(=O)[C@H](CCC(N)=O)NC(=O)[C@H](CO)NC(=O)[C@H](CC(C)C)NC(=O)[C@H](Cc2ccc(O)cc2)NC(=O)[C@H](Cc2ccc(O)cc2)NC(=O)[C@H](CCCCN)NC(=O)[C@H]([C@@H](C)CC)NC1=O (Ac-MCWSKLIIKYYLSQCGSGSDYKDDDDK-NH2; disulfide 2-15)
Kd (FGF-R4 ECD): 0.016 µM
Kd (FGF-R1C ECD): > 10 µM
Kd (FGF-R3C ECD): > 10 µM

CSCC[C@H](NC(C)=O)C(=O)N[C@H]1CSSC[C@@H](C(=O)NCC(=O)N[C@@H](CO)C(=O)NCC(=O)N[C@@H](CO)C(=O)N[C@@H](CC(=O)O)C(=O)N[C@@H](Cc2ccc(O)cc2)C(=O)N[C@@H](CCCCN)C(=O)N[C@@H](CC(=O)O)C(=O)N[C@@H](CC(=O)O)C(=O)N[C@@H](CC(=O)O)C(=O)N[C@@H](CC(=O)O)C(=O)N[C@@H](CCCCN)C(N)=O)NC(=O)[C@H](CCC(N)=O)NC(=O)[C@H](CCCCN)NC(=O)[C@H](Cc2ccc(O)cc2)NC(=O)[C@H](C(C)C)NC(=O)[C@H]([C@@H](C)O)NC(=O)[C@H](Cc2c[nH]c3ccccc23)NC(=O)[C@H](Cc2ccc(O)cc2)NC(=O)[C@H](CCCCN)NC(=O)[C@H](C(C)C)NC(=O)[C@H](Cc2c[nH]c3ccccc23)NC1=O (Ac-MCWVKYWTVYKQCGSGSDYKDDDDK-NH2; disulfide 2-13)
Kd (FGF-R4 ECD; [2]): 0.207 µM
Kd (FGF-R1C ECD): > 10 µM
Kd (FGF-R3C ECD): > 10 µM

CSCC[C@H](NC(C)=O)C(=O)N[C@H]1CSSC[C@@H](C(=O)NCC(=O)N[C@@H](CO)C(=O)NCC(=O)N[C@@H](CO)C(=O)N[C@@H](CC(=O)O)C(=O)N[C@@H](Cc2ccc(O)cc2)C(=O)N[C@@H](CCCCN)C(=O)N[C@@H](CC(=O)O)C(=O)N[C@@H](CC(=O)O)C(=O)N[C@@H](CC(=O)O)C(=O)N[C@@H](CC(=O)O)C(=O)N[C@@H](CCCCN)C(N)=O)NC(=O)[C@H](C(C)C)NC(=O)[C@H](CCCCN)NC(=O)[C@H](Cc2ccccc2)NC(=O)[C@H](Cc2c[nH]c3ccccc23)NC(=O)[C@H](Cc2ccccc2)NC(=O)[C@H](CCC(=O)O)NC(=O)[C@H](Cc2c[nH]cn2)NC(=O)[C@H](CCC(N)=O)NC(=O)[C@H](CCCCN)NC(=O)[C@H](Cc2ccccc2)NC(=O)[C@H](Cc2c[nH]c3ccccc23)NC(=O)[C@H](Cc2c[nH]c3ccccc23)NC1=O (Ac-MCWWFKQHEFWFKVCGSGSDYKDDDDK-NH2; disulfide 2-15)
Kd (FGF-R4 ECD; [1]): 0.002 µM
Kd (FGF-R1C ECD): > 10 µM
Kd (FGF-R3C ECD): > 10 µM

CSCC[C@H](NC(C)=O)C(=O)N[C@H]1CSSC[C@@H](C(=O)NCC(=O)N[C@@H](CO)C(=O)NCC(=O)N[C@@H](CO)C(=O)N[C@@H](CC(=O)O)C(=O)N[C@@H](Cc2ccc(O)cc2)C(=O)N[C@@H](CCCCN)C(=O)N[C@@H](CC(=O)O)C(=O)N[C@@H](CC(=O)O)C(=O)N[C@@H](CC(=O)O)C(=O)N[C@@H](CC(=O)O)C(=O)N[C@@H](CCCCN)C(N)=O)NC(=O)[C@H](CCCCN)NC(=O)[C@H](CC(C)C)NC(=O)[C@H](C(C)C)NC(=O)[C@H](CC(C)C)NC(=O)[C@H](CCC(=O)O)NC(=O)[C@@H]2CCCN2C(=O)[C@H](CCSC)NC(=O)[C@H](Cc2ccccc2)NC(=O)[C@H](Cc2c[nH]c3ccccc23)NC(=O)[C@H](Cc2c[nH]c3ccccc23)NC1=O (Ac-MCWWFMPELVLKCGSGSDYKDDDDK-NH2; disulfide 2-13)
Kd (FGF-R4 ECD; [2]): > 10 µM
Kd (FGF-R1C ECD): > 10 µM
Kd (FGF-R3C ECD): > 10 µM

CSCC[C@H](NC(C)=O)C(=O)N[C@H]1CSSC[C@@H](C(=O)NCC(=O)N[C@@H](CO)C(=O)NCC(=O)N[C@@H](CO)C(=O)N[C@@H](CC(=O)O)C(=O)N[C@@H](Cc2ccc(O)cc2)C(=O)N[C@@H](CCCCN)C(=O)N[C@@H](CC(=O)O)C(=O)N[C@@H](CC(=O)O)C(=O)N[C@@H](CC(=O)O)C(=O)N[C@@H](CC(=O)O)C(=O)N[C@@H](CCCCN)C(N)=O)NC(=O)[C@H](CC(C)C)NC(=O)[C@H](CCCNC(=N)N)NC(=O)[C@H](CCC(=O)O)NC(=O)[C@H](Cc2c[nH]c3ccccc23)NC(=O)[C@H](Cc2ccc(O)cc2)NC(=O)[C@H](Cc2ccccc2)NC(=O)[C@H](CO)NC(=O)[C@H](Cc2c[nH]cn2)NC(=O)[C@H](CCC(N)=O)NC(=O)[C@H](CC(=O)O)NC(=O)[C@H](Cc2ccc(O)cc2)NC(=O)[C@H](Cc2c[nH]c3ccccc23)NC1=O (Ac-MCWYDQHSFYWERLCGSGSDYKDDDDK-NH2; disulfide 2-15)
Kd (FGF-R4 ECD; [1]): > 10 µM
Kd (FGF-R1C ECD): > 10 µM
Kd (FGF-R3C ECD): > 10 µM

CC[C@H](C)[C@@H]1NC(=O)[C@H](CC(=O)O)NC(=O)[C@H](Cc2ccc(O)cc2)NC(=O)[C@@H](NC(=O)[C@H](CCSC)NC(C)=O)CSSC[C@@H](C(=O)NCC(=O)N[C@@H](CO)C(=O)NCC(=O)N[C@@H](CO)C(=O)N[C@@H](CC(=O)O)C(=O)N[C@@H](Cc2ccc(O)cc2)C(=O)N[C@@H](CCCCN)C(=O)N[C@@H](CC(=O)O)C(=O)N[C@@H](CC(=O)O)C(=O)N[C@@H](CC(=O)O)C(=O)N[C@@H](CC(=O)O)C(=O)N[C@@H](CCCCN)C(N)=O)NC(=O)[C@H](Cc2c[nH]cn2)NC(=O)[C@H](Cc2ccc(O)cc2)NC(=O)[C@H](C(C)C)NC(=O)[C@H]([C@@H](C)O)NC(=O)[C@H]([C@@H](C)CC)NC(=O)[C@H](Cc2ccc(O)cc2)NC(=O)[C@H](CC(=O)O)NC(=O)[C@H](Cc2ccccc2)NC(=O)[C@H](C(C)C)NC1=O (Ac-MCYDIVFDYITVYHCGSGSDYKDDDDK-NH2; disulfide 2-15)
Kd (FGF-R4 ECD; [1]): 0.021 µM
Kd (FGF-R1C ECD): > 10 µM
Kd (FGF-R3C ECD): > 10 µM

CC[C@H](C)[C@@H]1NC(=O)[C@H](CCC(=O)O)NC(=O)[C@H](CC(=O)O)NC(=O)[C@H](CCC(=O)O)NC(=O)[C@H](Cc2ccc(O)cc2)NC(=O)[C@@H](NC(=O)[C@H](CCSC)NC(C)=O)CSSC[C@@H](C(=O)NCC(=O)N[C@@H](CO)C(=O)NCC(=O)N[C@@H](CO)C(=O)N[C@@H](CC(=O)O)C(=O)N[C@@H](Cc2ccc(O)cc2)C(=O)N[C@@H](CCCCN)C(=O)N[C@@H](CC(=O)O)C(=O)N[C@@H](CC(=O)O)C(=O)N[C@@H](CC(=O)O)C(=O)N[C@@H](CC(=O)O)C(=O)N[C@@H](CCCCN)C(N)=O)NC(=O)[C@H](Cc2ccc(O)cc2)NC(=O)[C@H](CC(C)C)NC(=O)[C@H](C(C)C)NC(=O)[C@H](CCCCN)NC(=O)[C@H](Cc2ccc(O)cc2)NC(=O)[C@H](CC(C)C)NC(=O)[C@H](Cc2c[nH]c3ccccc23)NC1=O (Ac-MCYEDEIWLYKVLYCGSGSDYKDDDDK-NH2; disulfide 2-15)
Kd (FGF-R4 ECD; [1]): 0.009 µM
Kd (FGF-R1C ECD): > 10 µM
Kd (FGF-R3C ECD): > 10 µM
